According to US12059420B2 (BRISTOL-MYERS SQUIBB COMPANY, priority 2018, dated 2024):

What follows are compounds tested against T1, human IDO1 (Homo sapiens, UniProt P14902) (assay: IDO inhibition assay in HEK293 cells stably expressing human IDO1 (kynurenine production, Ehrlich reagent, absorbance 490 nm)). Details: 20 hours incubation with compound, 500 nM reference standard = 100% inhibition, read-out: IDO1 HEK Human IC50.
T1 construct: expressed in transfected cells
Format: cell-based
Description: HEK293 cells were transfected with a pCDNA-based mammalian expression vector harboring human IDO1 cDNA (NM 002164.2) by electroporation. They were cultured in medium (DMEM with 10% FBS) containing 1 mg/ml G418 for two weeks. Clones of HEK293 cells that stably expressed human IDO1 protein were selected and expanded for IDO inhibition assay.
The human IDO1/HEK293 cells were seeded at 10,000 cells per 50 μL per well with RPMI/phenol red free media contains 10% FBS in a 384-well black wall clear bottom tissue culture plate (Matrix Technologies LLC) 100 nL of certain concentration of compound was then added to each well using ECHO liquid handling systems. The cells were incubated for 20 hours in 37° C. incubator with 5% CO2.
The compound treatments were stopped by adding trichloroacetic acid (Sigma-Aldrich) to a final concentration at 0.2%. The cell plate was further incubated at 50° C. for 30 minute. The equal volume supernatant (20 μL) and 0.2% (w/v) Ehrlich reagent (4-dimethylaminobenzaldehyde, Sigma-Aldrich) in glacial acetic acid were mixed in a new clear bottom 384-well plate. This plate was then incubated at RT for 30 minute. The absorbance at 490 nm was measured on Envision plate reader.
Compound IC50 values were calculated using the counts of 500 nM of a reference standard treatment as one hundred percent inhibition, and counts of no compound but DMSO treatment as zero percent inhibition.

T1 sequence (P14902 whole entry): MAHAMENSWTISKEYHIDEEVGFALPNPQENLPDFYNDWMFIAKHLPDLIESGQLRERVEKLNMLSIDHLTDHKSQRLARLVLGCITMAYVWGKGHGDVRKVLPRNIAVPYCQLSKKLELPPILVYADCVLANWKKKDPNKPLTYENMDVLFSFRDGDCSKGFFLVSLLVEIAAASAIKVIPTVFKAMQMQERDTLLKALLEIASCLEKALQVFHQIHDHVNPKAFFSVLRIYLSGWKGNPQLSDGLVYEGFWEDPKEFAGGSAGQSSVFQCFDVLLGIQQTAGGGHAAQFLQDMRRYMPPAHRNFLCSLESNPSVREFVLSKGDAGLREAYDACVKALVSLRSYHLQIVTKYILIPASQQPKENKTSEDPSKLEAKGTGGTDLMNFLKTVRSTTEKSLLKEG

Compound	IC50
1-(2-(2-(1H-tetrazol-5-yl)phenyl)-6- (benzyl(propyl)amino)pyridin-4-yl)-3-(4- ethoxyphenyl)urea [Example 272]	129 nM
CCC(CC(=O)O)c1cc(Nc2ccc(Cl)cc2)cc(N(Cc2ccccc2)CC(C)C)n1 (racemic) [Example 245, 3-(6-(benzyl(isobutyl)amino)-4-((4-chlorophenyl)amino)pyridin-2-yl)pentanoic acid]	47.5 nM
CCC(CC(=O)O)c1cc(NC(=O)Nc2ccc(C)cc2)cc(N(Cc2ccccc2)CC(C)C)n1 (single isomer, unassigned) [Example 244, 3-(6-(benzyl(isobutyl)amino)-4-(3-(p-tolyl)ureido)pyridin-2-yl)pentanoic acid]	109 nM
CCC(CC(=O)O)c1cc(Nc2ccc3nc(C)sc3c2)cc(N(Cc2ccc(F)cc2)C(C)C)n1 (single isomer, unassigned) [Example 247, 3-(6-((4-fluorobenzyl)(isopropyl)amino)-4-((2-methylbenzo [d]thiazol-6-yl)amino)pyridin-2-yl)pentanoic acid]	11.1 nM
CCC(CC(=O)O)c1cc(Nc2ccc3nc(C)sc3c2)cc(N(Cc2ccc(F)cc2)CC(C)C)n1 (single isomer, unassigned) [Example 249, 3-(6-((4-fluorobenzyl)(isobutyl)amino)-4-((2-methylbenzo [d]thiazol-6-yl)amino)pyridin-2-yl)pentanoic acid]	934 nM
CCC(CC(=O)O)c1cc(NC(=O)Nc2ccc(C)cc2)cc(N(Cc2ccc(F)cc2)CC(C)C)n1 (single isomer, unassigned) [Example 250, 3-(6-((4-fluorobenzyl)(isobutyl)amino)-4-(3-(p-tolyl)ureido)pyridin-2-yl)pentanoic acid]	156 nM
CCN(Cc1ccccc1)c1cc(NC(=O)Cc2ccc(C)cc2)cc(-c2ccccc2-c2nnn[nH]2)n1 [Example 1, N-(2-(2-(1H-tetrazol-5-yl)phenyl)-6-(benzyl(ethyl)amino)pyridin-4-yl)-2-(p-tolyl)acetamide]	45.4 nM
CCN(Cc1ccccc1)c1nc(NC(=O)Nc2ccc(C)cc2)cc(-c2ccccc2-c2nnn[nH]2)n1 [Example 4, 1-(6-(2-(1H-tetrazol-5-yl)phenyl)-2-(benzyl(ethyl)amino)pyrimidin-4-yl)-3-(p-tolyl)urea]	952 nM
Cc1ccc(C(=O)Nc2cc(-c3ccccc3-c3nnn[nH]3)nc(N(Cc3ccccc3)CC(C)C)n2)c(F)c1 [Example 9, N-(6-(2-(1H-tetrazol-5-yl)phenyl)-2-(benzyl(isobutyl)amino)pyrimidin-4-yl)-2-fluoro-4-methylbenzamide]	74 nM
Cc1ccc(NC(=O)Nc2cc(-c3ccccc3-c3nnn[nH]3)nc(N(Cc3ccccc3)CC(C)C)n2)cc1 [Example 10, 1-(6-(2-(1H-tetrazol-5-yl)phenyl)-2-(benzyl(isobutyl)amino)pyrimidin-4-yl)-3-(p-tolyl)urea]	404 nM
Cc1ccc(CC(=O)Nc2cc(-c3ccccc3-c3nnn[nH]3)nc(N(Cc3ccccc3)CC(C)C)n2)c(F)c1 [Example 11, N-(6-(2-(1H-tetrazol-5-yl)phenyl)-2-(benzyl(isobutyl)amino)pyrimidin-4-yl)-2-(2-fluoro-4-methylphenyl)acetamide]	18.1 nM
CCCN(Cc1ccc(F)cc1)c1cc(NC(=O)Nc2ccc(Cl)cc2F)cc(-c2ccccc2-c2noc(=O)[nH]2)n1 [Example 13, 1-(4-chloro-2-fluorophenyl)-3-(2-((4-fluorobenzyl)(propyl)amino)-6-(2-(5-oxo-4,5-dihydro-1,2,4-oxadiazol-3-yl)phenyl)pyridin-4-yl)urea]	13.2 nM
CCCN(Cc1ccccc1)c1cc(NC(=O)Nc2ccc(C)cc2)cc(-c2ccccc2-c2nsc(=O)[nH]2)n1 [Example 14, 1-(2-(benzyl(propyl)amino)-6-(2-(5-oxo-4,5-dihydro-1,2,4-thiadiazol-3-yl)phenyl)pyridin-4-yl)-3-(p-tolyl)urea]	181 nM
CCCN(Cc1ccccc1)c1cc(NC(=O)Nc2ccc(C)cc2)cc(-c2ccccc2C(=O)NS(=O)(=O)C2CC2)n1 [Example 20, 2-(6-(benzyl(propyl)amino)-4-(3-(p-tolyl)ureido)pyridin-2-yl)-N-(cyclopropylsulfonyl)benzamide]	594 nM
CCCN(Cc1ccccc1)c1cc(NC(=O)Cc2ccc(C)cc2)cc(-c2ccccc2C(=O)NS(C)(=O)=O)n1 [Example 21, 2-(6-(benzyl(propyl)amino)-4-(2-(p-tolyl)acetamido)pyridin-2-yl)-N-(methylsulfonyl)benzamide]	328 nM
Cc1ccc(CC(=O)Nc2cc(-c3ccccc3-c3nnn[nH]3)nc(N(Cc3ccccc3)CC3CC3)n2)cc1 [Example 22, N-(6-(2-(1H-tetrazol-5-yl)phenyl)-2-(benzyl(cyclopropylmethyl)amino)pyrimidin-4-yl)-2-(p-tolyl)acetamide]	32.4 nM
CCCN(Cc1ccccc1)c1cc(NC(=O)Cc2ccc(C)cc2)cc(-c2ccccc2C(=O)NS(=O)(=O)N2CCN(C)CC2)n1 [Example 25, 2-(6-(benzyl(propyl)amino)-4-(2-(p-tolyl)acetamido)pyridin-2-yl)-N-((4-methylpiperazin-1-yl)sulfonyl)benzamide]	2910 nM

Further lines, results first:

IC50	Compound
24.8 nM	6-(2-(1H-tetrazol-5-yl)phenyl)-N2- benzyl-N4-(2-fluoropyridin-3-yl)- N2-isobutylpyridine-2,4-diamine, TFA [Example 54]
4.7 nM	CCC(CC(=O)O)c1cc(Nc2ccc(Cl)cc2)cc(N(Cc2ccc(F)cc2)C(C)C)n1 (racemic) [Example 246, 3-(4-((4-chlorophenyl)amino)-6-((4-fluorobenzyl)(isopropyl)amino)pyridin-2-yl)pentanoic acid]
1610 nM	CCC(CC(=O)O)c1cc(Nc2ccc3nc(C)sc3c2)cc(N(Cc2ccccc2)CC(C)C)n1 (single isomer, unassigned) [Example 243, 3-(6-(benzyl(isobutyl)amino)-4-((2-methylbenzo [d]thiazol-6-yl)amino)pyridin-2-yl)pentanoic acid]
217 nM	CCC(CC(=O)O)c1cc(Nc2ccc(Cl)cc2)cc(N(Cc2ccc(F)cc2)CC(C)C)n1 (single isomer, unassigned) [Example 248, 3-(4-((4-chlorophenyl)amino)-6-((4-fluorobenzyl)(isobutyl)amino)pyridin-2-yl)pentanoic acid]
1040 nM	Cc1ccc(NC(=O)Nc2cc(-c3ccccc3-c3nnn[nH]3)nc(N(CC(C)C)C3CCCCC3)n2)cc1 [Example 2, 1-(6-(2-(1H-tetrazol-5-yl)phenyl)-2-(cyclohexyl(isobutyl)amino)pyrimidin-4-yl)-3-(p-tolyl)urea]
26.3 nM	Cc1ccc(CC(=O)Nc2cc(-c3ccccc3-c3nnn[nH]3)nc(N(CC(C)C)C3CCCCC3)n2)cc1 [Example 3, N-(6-(2-(1H-tetrazol-5-yl)phenyl)-2-(cyclohexyl(isobutyl)amino)pyrimidin-4-yl)-2-(p-tolyl)acetamide]
89 nM	CCN(Cc1ccccc1)c1nc(NC(=O)Cc2ccc(C)cc2)cc(-c2ccccc2-c2nnn[nH]2)n1 [Example 7, N-(6-(2-(1H-tetrazol-5-yl)phenyl)-2-(benzyl(ethyl)amino)pyrimidin-4-yl)-2-(p-tolyl)acetamide]
8.5 nM	Cc1ccc(CC(=O)Nc2cc(-c3ccccc3-c3nnn[nH]3)nc(N(Cc3ccccc3)CC(C)C)n2)cc1 [Example 8, N-(6-(2-(1H-tetrazol-5-yl)phenyl)-2-(benzyl(isobutyl)amino)pyrimidin-4-yl)-2-(p-tolyl)acetamide]
7 nM	CCCN(Cc1ccccc1)c1cc(NC(=O)Nc2ccc(Cl)cc2F)cc(-c2ccccc2-c2noc(=O)[nH]2)n1 [Example 12, 1-(2-(benzyl(propyl)amino)-6-(2-(5-oxo-4,5-dihydro-1,2,4-oxadiazol-3-yl)phenyl)pyridin-4-yl)-3-(4-chloro-2-fluorophenyl)urea]
161 nM	CCCN(Cc1ccccc1)c1cc(NC(=O)Cc2ccc(C)cc2)cc(-c2ccccc2C(=O)O)n1 [Example 17, 2-(6-(benzyl(propyl)amino)-4-(2-(p-tolyl)acetamido)pyridin-2-yl)benzoic acid]
2430 nM	CCCN(Cc1ccccc1)c1cc(NC(=O)Nc2ccc(C)cc2)cc(-c2ccccc2C(=O)NS(=O)(=O)N2CCN(C)CC2)n1 [Example 18, 2-(6-(benzyl(propyl)amino)-4-(3-(p-tolyl)ureido)pyridin-2-yl)-N-((4-methylpiperazin-1-yl)sulfonyl)benzamide]
485 nM	CCCN(Cc1ccccc1)c1cc(NC(=O)Cc2ccc(C)cc2)cc(-c2ccccc2C(=O)NS(=O)(=O)C2CC2)n1 [Example 19, 2-(6-(benzyl(propyl)amino)-4-(2-(p-tolyl)acetamido)pyridin-2-yl)-N-(cyclopropylsulfonyl)benzamide]
16.2 nM	CCCN(Cc1ccccc1)c1nc(NC(=O)Cc2ccc(C)cc2)cc(-c2ccccc2-c2nnn[nH]2)n1 [Example 23, N-(6-(2-(1H-tetrazol-5-yl)phenyl)-2-(benzyl(propyl)amino)pyrimidin-4-yl)-2-(p-tolyl)acetamide]
256 nM	CCCN(Cc1ccccc1)c1cc(NC(=O)Nc2ccc(C)cc2)cc(-c2ccccc2C(=O)NS(C)(=O)=O)n1 [Example 24, 2-(6-(benzyl(propyl)amino)-4-(3-(p-tolyl)ureido)pyridin-2-yl)-N-(methylsulfonyl)benzamide]
